The results in this text go back to PubChem BioAssay (NCI).

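Where inhibition never reached the appropriate level, the endpoint shown equals the highest concentration tested. Otherwise, values were interpolated linearly from a five-concentration, 48-hour dose response in 96-well plates. TGI denotes the concentration required for complete inhibition of growth.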

What all share (experiment): NCI anticancer screen, dose series, 48 h
In test [1] the test system is ACHN renal.
Test [2] concerns K-562 leukemia.
For test [3], the system named is CAKI-1 renal.
In test [4] the test system is A549 NSCLC.
The subject of test [5] is HS 578T breast.
The test system of test [6] is EKVX NSCLC.
Test [7] relates to HCT-116 colon.
Test [8] deals with UO-31 renal.
Test [9] relates to U251 CNS.
Test [10] relates to OVCAR-8 ovarian.

On to `COc1ccc2c(c1)[nH]c1c(/C=C/c3ccccc3)nccc12`, for which the TGI in test [1] was 28.4 µM; in [2], more than 100 µM; in [3], 52 µM; in test [4] it was 37.2 µM; in [5], 45.3 µM; in test [6], 29.6 µM. The TGI in [7] was determined as 30.4 µM; in [8], 24 µM; in test [9], 38.9 µM; in test [10], 42.2 µM.

For `O=C(/C=C/c1ccc(O)c(-c2cc(C(=O)/C=C/c3ccc(O)cc3)c(O)cc2O)c1)c1ccc(O)cc1O`, the TGI in test [1] is more than 50 µM; in test [2], 35.1 µM; in [3], more than 50 µM; in test [4], more than 50 µM; in test [5] it was more than 50 µM; in test [6], more than 50 µM. Also, the TGI was 23.7 µM in [7], more than 50 µM in test [8], more than 50 µM in test [9] and 24.7 µM in test [10].

`O=C(C[n+]1ccc2ccccc2c1)c1ccc2ccc3ccccc3c2c1`: the TGI was found to be 14.8 µM in [1]; 1.99 µM in [2]; 20.1 µM in test [3]; 16.6 µM in test [4]; 35.2 µM in test [5]; 19.3 µM in test [6]. Moreover, the TGI stood at 13.6 µM in test [7], 17.6 µM in test [8], 14.6 µM in [9] and 19.8 µM in [10].

Consider `CC12CC3OC(=O)C1COC14OC5(C2C1=O)C(O)(CCC1C4CC(O)C2(O)CC=CC(=O)C12C)C(=O)OC35C` (stereo not given), for which the TGI in test [1], in [2], in [3], in test [4], in test [5] and in test [6] was more than 100 µM in each case. Further, the TGI in test [7], in test [8], in [9] and in [10] was more than 100 µM throughout.

For `CC(=O)C1=C(C)N(c2ccc(C)cc2)C2(O)C=CC(=O)C3C(=O)N(c4ccccc4)C(=O)C132` (stereo not given), the TGI in test [1] was 40.4 µM; in test [2] it was 66.3 µM; in test [3], 45.4 µM; in test [4] it was more than 100 µM; in test [5], more than 100 µM; in test [6], 95.5 µM. For the same compound, the TGI in [7] was more than 100 µM; in test [8] it was 24.6 µM; in [9] it was 65.6 µM; in test [10], 59.2 µM.

For the compound `C[C@H](CCC(=O)O)[C@H]1CC[C@@]2(C)[C@@H]3C(=O)C[C@H]4C(C)(C)[C@@H](O)CC[C@]4(C)[C@H]3C(=O)C[C@]12C`, the TGI in [1], in [2], in test [3], in [4], in [5] and in [6] was more than 100 µM each time. Moreover, the TGI in test [7] is more than 100 µM; in test [8] it was 30.2 µM; in test [9], more than 100 µM; in [10], more than 100 µM.

For the compound `Cc1ccccc1C(=O)N/N=C/c1ccc(Sc2nccn2C)c([N+](=O)[O-])c1`, the TGI in test [1], in [2], in test [3], in test [4], in test [5] and in test [6] was more than 100 µM in each case. The TGI in [7], in test [8], in test [9] and in test [10] was more than 100 µM throughout.

In the case of `COc1nc(C#CC2(O)CCCCC2)nc(OC)n1`, the TGI in test [1] was 21.9 µM; in test [2], more than 100 µM; in test [3], 15.9 µM; in test [4], 28.1 µM; in test [5], 44.8 µM; in test [6], 35.6 µM. For the same compound, the TGI in [7] was more than 100 µM; in test [8] it was 15.1 µM; in [9], 26.4 µM; in test [10], 39.8 µM.

`Cc1c(N2C(=O)CS(=O)(=O)C2c2cccc(Oc3ccccc3)c2)c(=O)n(-c2ccccc2)n1C` (stereo not given): the TGI in test [1], in test [2], in test [3], in test [4], in test [5] and in test [6] was more than 100 µM throughout. Besides, the TGI in [7], in test [8], in [9] and in [10] was more than 100 µM each time.

As to `CCN(CC(=O)O)C(=O)c1cccnc1`, the TGI in test [1], in test [2], in test [3], in test [4], in [5] and in test [6] was more than 100 µM in each case. Further, the TGI in test [7], in test [8], in test [9] and in test [10] was more than 100 µM throughout.

Turning to `COc1ccc(C(=O)c2sc(Nc3ccc(Cl)cc3)nc2N)cc1`, the TGI in [1] was more than 87.7 µM; in test [2], more than 100 µM; in [3], 42.2 µM; in test [4], more than 59.6 µM; in test [5], 47.4 µM; in test [6], more than 100 µM. The TGI in test [7] was more than 34.4 µM; in [8], 97.7 µM; in test [9], more than 55.5 µM; in test [10] it was more than 100 µM.
